From article PMC3706879, “The neurotrophic compound J147 reverses cognitive impairment in aged Alzheimer's disease mice” (Alzheimer's Research & Therapy, 2013)
Entries after “also recorded” stand apart in the source; their conditions may differ.

How the values were obtained:
mice [1] = assay: acute toxicity in mice (Absorption Systems); assay type: in vivo; conditions: 2 g/kg, oral, maximum testable dose
mice [2] = assay: feeding throughout pregnancy to mice; assay type: in vivo; conditions: 10 mg/kg/day throughout pregnancy
Aβ1-40 and Aβ1-42 = assay: Aβ ELISA of hippocampus of aged huAPP/PS1 mice; assay type: in vivo; conditions: three months J147
Description: The APPswe/PS1ΔE9 transgenic mice have been previously characterized. The line 85 mice carry two transgenes, the mouse/human chimeric APP/Swe, linked to Swedish FAD and human PS1ΔE9. At 20 months of age both male and female transgenic mice were fed a high fat diet (Harlan Tekland, Madison, WI, USA) with and without J147 (200 ppm, 10 mg/kg/day). Treatment continued for three months and was followed by behavior testing and sacrifice of mice for tissue harvesting. […] (Data not shown).
Hippocampal and entorhinal cortex tissue samples were homogenized in 10 volumes of RIPA lysis buffer (50 mM Tris, pH 7.5, 150 mM NaCl, 0.1% sodium dodecyl sulfate and 0.5% deoxycholate, and 1% NP40) containing a cocktail of protease and phosphatase inhibitors ([…] each of pepstatin A, aprotinin, phosphoramidon, and leupeptin; 0.5 mM 4-(2-aminoethyl) benzenesulfonyl fluoride hydrochloride; 1 mM EGTA; 5 mM fenvalerate; and 5 mM cantharidin). Samples were sonicated (2 × 10 s) and centrifuged at 100,000 × g for 60 minutes at 4°C. Protein concentrations in the cell extracts were determined using the BCA protein assay (Pierce supplied by Thermo Fisher Scientific, Rockford, IL, USA). Equal amounts of protein were solubilized in 2.5x SDS-sample buffer, separated on 12% SDS-polyacrylamide gels, transferred to Immobulin P and immunoblotted with the antibodies indicated in the Materials section. For Western blots, protein levels were normalized to actin levels. An unpaired t test was performed to compare between two groups at a single time point. When comparing multiple groups, one-way ANOVA followed by a Tukey's post hoc test was used. All statistical analysis was conducted using GraphPad Instat software.
Aβ 1 to 40 and 1 to 42 levels in hippocampal lysate were analyzed using the Aβ1-40 and Aβ1-42 ELISA kits from Invitrogen (# KHB3481 and # KHB3442, respectively). All kit reagents were brought to room temperature before use. Standards were prepared according to the manufacturer's guidelines and samples were diluted as follows; RIPA fractions were diluted 1:10 for both Aβ1-40 and Aβ1-42; and RIPA insoluble fractions were diluted 1:2,000 for Aβ1-40 and 1:5,000 for Aβ1-42. A total of 50 μl of Aβ peptide standards and samples were added in duplicate to 96-well plates pre-coated with mAb to the NH2 terminus region of Aβ. Plates were incubated at 4°C overnight and then 50 μl of Hu Aβ40 or Aβ42 detection antibody was added to each well except the chromogen blanks. […] Stop solution was then added at 100 μl to each well followed by reading the absorbance of each well at 450 nm. […] The concentrations of the samples were calculated from the standard curve and multiplied by the dilution factor.

C57BL/6J mice = assay: fear conditioning, scopolamine induced memory impairment; assay type: in vivo; conditions: scopolamine 1 mg/kg i.p.; J147 200 ppm, donepezil 20 ppm in food; vs scopolamine
Description: A total of 60 male mice aged eight weeks were housed 4 per cage and were divided into five groups with 12 mice per group. Treatments were administered in the food (TestDiet® 5015, Richmond, IN, USA) for a period of two weeks before commencement of behavioral testing. […] Following two weeks of treatment, memory impairment was induced by intraperitoneal (i.p.) injection of scopolamine (1 mg/kg) 30 minutes prior to each of the following behavioral tests: Y-maze, probe trial of the water maze and contextual and cued fear conditioning. Mice were allowed to rest for two days between each behavior test. All mice received scopolamine except for one of the control groups, which received saline as a control. Mice were sacrificed 24 hours after the last behavioral test for tissue harvesting.
Fear conditioning to either a cue or a context represents a form of associative learning. The read-out that is measured in contextual and cued fear conditioning is a freezing response that occurs following the pairing of an unconditioned stimulus (US), such as a foot shock, with a conditioned stimulus (CS), such as a particular context or cue (tone). The mouse will freeze if it remembers and associates that environment with the aversive stimulus. The hippocampus and the amygdala are required for fear memory where the hippocampus is involved in the formation and retrieval of context fear associations and the amygdala is involved in conditioning and recall of associations to contextual and discrete cues. This assay used fear conditioning chambers from Med Associates Inc. with Video Freeze Software (Med Associates Inc, St. Albans, VT, USA). On Day 1, mice were trained by allowing them to explore the chamber for 120 sec, mice were then presented with a 30-sec tone (2 kHz with 85 dB intensity) immediately followed by a 2-sec foot shock (0.7 mA). The tone-shock pairing was repeated following a 30-sec interval and the mice were again allowed to explore for 120 sec before removing them from the chamber. On Day 2, contextual memory, which requires a functioning hippocampus, was tested by placing the mice in the chambers and allowing them to explore for the same length of time as the previous day but without the tone and the shock. On Day 3, cued or emotional memory was tested, which relies on both hippocampus and amygdala. […] On Day 2, the time spent freezing is measured over the entire time in the chamber. […] The percentage of time spent freezing by each mouse is averaged per group and then groups can be compared and P-values calculated to determine statistical significance. On Day 3, the percentage of time spent freezing during the two tones is averaged per group, and then groups can be compared and P-values calculated to determine statistical significance. […]

MDRI-MDCK = conditions: MDCK-MDR1
BDNF = test system: BDNF; design: method as in PMID 22194796; conditions: normal rats; cited from earlier work

**Q.** What does the source list for COc1cccc(/C=N/N(C(=O)C(F)(F)F)c2ccc(C)cc2C)c1 [J147, (E)-N-(2,4-dimethylphenyl)-2,2,2-trifluoro-N'-(3methoxybenzyli-dene) acetohydrazide]?
**A.** acute toxicity (mice [1]): no oral toxicity; also recorded: negative results; offspring after feeding throughout pregnancy (mice [2]): normal; Aβ1-40 levels, RIPA insoluble fraction (Aβ1-40 and Aβ1-42): reduced; Aβ1-42 levels, RIPA insoluble fraction (Aβ1-40 and Aβ1-42): not altered; RIPA soluble Aβ1-40 (Aβ1-40 and Aβ1-42): decreased; RIPA soluble Aβ1-42 (Aβ1-40 and Aβ1-42): decreased; contextual memory (freezing Day 2) (C57BL/6J mice): it was not significant; cued memory (freezing in response to the tone, Day 3) (C57BL/6J mice): neither effect was significant; MDRI-MDCK brain transport rates classification (BBB penetration) (MDRI-MDCK): High; levels of BDNF in the hippocampus (BDNF): increases the levels of BDNF
